Reference: patent publication US20220330549A1, “USE OF N-BENZYLBENZAMIDE-BASED COMPOUND AS HERBICIDE” (Northwest A&F University, priority 2020, published 2022)

Columns and labels:
Type in all cases: in vivo
[1] = test system: Amaranthus retroflexus; assay: Herbicidal activity test for indoor pre-emergence soil treatment; set-up: key: 1-9 levels; higher = more weed remaining vs blank control; conditions: 150 g a.i./ha, visual inspection 21 days after treatment
In short: (§1)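 Pre-emergence soil spray per NY/T 1155.3-2006: weed seeds sown in moistened neutral sandy loam (organic content ≤2%), covered with 0.5–2.0 cm soil, then sprayed 24 h later with a water-diluted 10% emulsifiable concentrate at 150 g(a.i.)/ha. Visual rating after 21 days on a 1–9 scale.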

[2] = test system: Digitaria sanguinalis; assay: as above; set-up: key: 1-9 levels; higher = more weed remaining vs blank control; conditions: 150 g a.i./ha, visual inspection 21 days after treatment
In short: as §1

[3] = test system: Broadleaf weed; assay: Post-emergence herbicidal activity test in a paddy field; set-up: key: level scale; higher level = more weed left vs blank control; conditions: 150 g a.i./ha (penoxsulam control 250 g(a.i.)/h)
In short: (§2)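 Efficacy was visually estimated 15 and 30 days after spraying, grading weed coverage relative to an untreated neighbouring plot (level 2 = 0 to 2.5%, level 9 = 67.6 to 100%). Treatments were 150 g(a.i.)/ha from 10% emulsifiable concentrates applied at the 4-5 leaf rice stage, four repeats of 50 m^2 each.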

[4] = test system: Cyperaceae; assay: as above; set-up: key: level scale; higher level = more weed left vs blank control; conditions: 150 g a.i./ha (penoxsulam control 250 g(a.i.)/h)
In short: as §2

[5] = test system: Gramineae; assay: as above; set-up: key: level scale; higher level = more weed left vs blank control; conditions: 150 g a.i./ha (penoxsulam control 250 g(a.i.)/h)
In short: as §2

[6] = test system: Barnyard grass; assay: Herbicidal activity test for indoor post-emergence spraying on stems and leaves; set-up: key: grade level by weed remaining vs blank control, e.g. 5 = 10.1-15%; conditions: 150 g a.i./ha, visual inspection 21 days after treatment
In short: (§3)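 Following national standard NY/T 1155.4-2006, seedlings raised in a greenhouse receive stem-and-leaf spraying after emergence; 21 days on, surviving weed is compared by eye with the blank control area and assigned a graded level (e.g., level 6 = 15.1–25%).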

[7] = test system: Amaranthus retroflexus; assay: as above; set-up: key: grade level by weed remaining vs blank control, e.g. 5 = 10.1-15%; conditions: 150 g a.i./ha, visual inspection 21 days after treatment
In short: as §3

[8] = test system: green bristlegrass; assay: as above; set-up: key: grade level by weed remaining vs blank control, e.g. 5 = 10.1-15%; conditions: 150 g a.i./ha, visual inspection 21 days after treatment
In short: as §3

[9] = test system: Humulus scandens; assay: as above; set-up: key: grade level by weed remaining vs blank control, e.g. 5 = 10.1-15%; conditions: 150 g a.i./ha, visual inspection 21 days after treatment
In short: as §3

[10] = test system: Piemarker; assay: as above; set-up: key: grade level by weed remaining vs blank control, e.g. 5 = 10.1-15%; conditions: 150 g a.i./ha, visual inspection 21 days after treatment
In short: as §3

[11] = test system: Digitaria sanguinalis; assay: as above; set-up: key: grade level by weed remaining vs blank control, e.g. 5 = 10.1-15%; conditions: 150 g a.i./ha, visual inspection 21 days after treatment
In short: as §3

[12] = test system: Barnyard grass; assay: Herbicidal activity test for indoor pre-emergence soil treatment; set-up: key: level 1-9; higher = more weed remaining vs blank control; conditions: 150 g a.i./ha, visual inspection 21 days after treatment
In short: as §1

[13] = test system: green bristlegrass; assay: as above; set-up: key: level 1-9; higher = more weed remaining vs blank control; conditions: 150 g a.i./ha, visual inspection 21 days after treatment
In short: as §1

[14] = test system: Piemarker; assay: as above; set-up: key: level 1-9; higher = more weed remaining vs blank control; conditions: 150 g a.i./ha, visual inspection 21 days after treatment
In short: as §1

[15] = test system: Barnyard grass; assay: Field test for weed control in a corn field; conditions: 150 g a.i./ha, 30 days after treatment
In short: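 Herbicidal activity against barnyard grass was assessed in corn field plots of 20 m^2, with four replicates per treatment. Compounds were applied as water-diluted 10% emulsifiable concentrates at 150 g(a.i.)/ha at the 2-5 leaf corn stage, with 25% mesotrione oil dispersion as the reference agent. Damage was scored on a 1-9 scale against untreated blank plots.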

[16] = test system: Portulaca oleracea; assay: Field test for weed control in a corn field; conditions: 150 g a.i./ha, after treatment
In short: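 Post-emergence weed control was evaluated in a corn field by the GB/T 17980.42-2000 method. Emulsifiable concentrates (10%) in water were applied as sprays at 150 g(a.i.)/ha at the 2-5 leaf corn stage, in four replicate 20 m^2 plots. A 25% mesotrione oil dispersion served as control agent. Effects were graded 1-9 relative to weed remaining in blank control areas.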

[17] = test system: Solanum nigrum; assay: Field test for weed control in a corn field; conditions: 150 g a.i./ha, 30 days after treatment
In short: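 In a corn field trial based on GB/T 17980.42-2000, 10% emulsifiable concentrates diluted in water were sprayed at 150 g(a.i.)/ha at the 2 to 5 leaf stage of corn. Each treatment used 20 m^2 plots and was repeated 4 times, with 25% mesotrione oil dispersion as the reference agent. Solanum nigrum damage was scored on a 1-9 scale against blank control plots.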

[18] = test system: Amaranthus retroflexus; assay: Field test for weed control in a corn field; conditions: 150 g a.i./ha, 30 days after treatment
In short: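 Post-emergence control of Amaranthus retroflexus was assessed in corn plots using the GB/T 17980.42-2000 method. Emulsifiable concentrates (10%) in water were applied by spraying at the 2- to 5-leaf crop stage on 20 m^2 plots, four replicates each, alongside a mesotrione 25% oil dispersion reference. Herbicidal activity was scored on 1-9 levels by weed amount relative to blank control areas.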

[19] = test system: green bristlegrass; assay: Field test for weed control in a corn field; conditions: 150 g a.i./ha, after treatment
In short: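 Herbicidal activity against green bristlegrass was assessed in corn field plots of 20 m^2 per GB/T 17980.42-2000. Test agents, formulated as 10% emulsifiable concentrates, were applied in water at 150 g(a.i.)/ha at the corn 2 leaves to 5 leaves stage, repeated 4 times. A 25% mesotrione oil dispersion served as the control agent, and weed damage was rated on levels 1-9.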

[20] = test system: nutgrass flatsedge; assay: Field test for weed control in a corn field; conditions: 150 g a.i./ha, after treatment
In short: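 Herbicidal effect on nutgrass flatsedge was measured in a field planted with corn, using the GB/T 17980.42-2000 method. Emulsifiable concentrates (10%) in water were sprayed at 150 g(a.i.)/ha during the 2-leaf to 5-leaf corn stage, on 20 m^2 plots repeated 4 times. 25% mesotrione oil dispersion was the control agent. Activity was scored from 1 to 9 by weed remaining relative to blank control plots.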

[21] = test system: Acalypha australis; assay: Field test for weed control in a corn field; conditions: 150 g a.i./ha, after treatment
In short: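 Herbicidal activity against weeds was assessed in corn plots by the GB/T 17980.42-2000 method. Corn at the 2–5 leaf stage received water sprays of 10% emulsifiable concentrates at 150 g(a.i.)/ha, four repeats per treatment over 20 m^2. A 25% mesotrione oil dispersion was the reference. Damage symptoms and severity were rated on levels 1-9 relative to weeds in the blank control area.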

[22] = test system: Chenopodium album; assay: Field test for weed control in a corn field; conditions: 150 g a.i./ha, after treatment
In short: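 Field weed-control testing in corn, run per GB/T 17980.42-2000, scored Chenopodium album on a 1-9 level scale, where each level matches a percentage range of weed remaining relative to the blank control area. Sprays of 10% emulsifiable concentrates in water delivered 150 g(a.i.)/ha at the corn 2-leaf to 5-leaf stage on 20 m^2 plots, four replicates each. Mesotrione 25% oil dispersion served as reference.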

[23] = test system: Convolvulus arvensis; assay: Field test for weed control in a corn field; conditions: 150 g a.i./ha, after treatment
In short: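 Post-emergence herbicidal activity on Convolvulus arvensis was scored in a corn field on a 1-9 scale, based on symptoms and damage severity. Each level corresponds to the weed remaining as a percentage of the blank control area. Sprays of 10% emulsifiable concentrate at 150 g(a.i.)/ha went on at the corn 2–5 leaf stage, with four replicates of 20 m^2 per treatment.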

[24] = test system: goosegrass; assay: Field test for weed control in a corn field; conditions: 150 g a.i./ha, after treatment
In short: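 In this field trial in corn, run per GB/T 17980.42-2000, test agents prepared as 10% emulsifiable concentrates were applied in water as sprays at 150 g(a.i.)/ha at the 2- to 5-leaf corn stage. Each treatment covered 20 m^2 and was repeated 4 times. Goosegrass control was scored 1-9 relative to weed remaining in blank control areas.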

[25] = test system: Digitaria sanguinalis; assay: Field test for weed control in a corn field; conditions: 150 g a.i./ha, after treatment
In short: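 Field trial in a corn field following GB/T 17980.42-2000. Test compounds were formulated as 10% emulsifiable concentrates, diluted in water and sprayed post-emergence at 150 g(a.i.)/ha when corn had 2 to 5 leaves, with 4 replicates on 20 m^2 plots. Control of Digitaria sanguinalis was scored on a 1-9 scale based on weed damage relative to the untreated blank area.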

[26] = test system: Humulus scandens; assay: Herbicidal activity test for indoor pre-emergence soil treatment; conditions: 150 g a.i./ha, visual inspection 21 days after treatment
In short: as §1

| SMILES | Herbicidal Activity Amaranthus retroflexus [1] | Herbicidal Activity Digitaria sanguinalis [2] | Herbicidal activity 15 days after treatment Broadleaf weed [3] | Herbicidal activity 30 days after treatment Broadleaf weed [3] | Herbicidal activity 15 days after treatment Cyperaceae [4] | Herbicidal activity 30 days after treatment Cyperaceae [4] | Herbicidal activity 15 days after treatment Gramineae [5] | Herbicidal activity 30 days after treatment Gramineae [5] | Herbicidal Activity Barnyard grass [6] | Herbicidal Activity Amaranthus retroflexus [7] | Herbicidal Activity Green bristlegrass [8] | Herbicidal Activity Humulus scandens [9] | Herbicidal Activity Piemarker [10] | Herbicidal Activity Digitaria sanguinalis [11] | Herbicidal Activity Barnyard grass [12] | Herbicidal Activity Green bristlegrass [13] | Herbicidal Activity Piemarker [14] | Post-emergence weed control effect, Barnyard grass [15] | Post-emergence weed control effect, Portulaca oleracea [16] | Post-emergence weed control effect, Solanum nigrum [17] | further results |
| --- | --- | --- | --- | --- | --- | --- | --- | --- | --- | --- | --- | --- | --- | --- | --- | --- | --- | --- | --- | --- | --- |
| COc1ccc(OC)c(C(=O)NCc2cc(Cl)cc(Cl)c2)c1 [Compound A29] | 1 | 2 (equivalent to 0 to 2.5% of the weed in the blank control area) | 1 | 1 | 1 | 2 (equivalent to 0 to 2.5% of the weed in the blank control area) | 2 (equivalent to 0 to 2.5% of the weed in the blank control area) | 1 | 1 | 1 | 1 | 1 | 1 | 1 | 1 | 1 | 1 | 1 | 1 | 2 (equivalent to 0 to 2.5% of the weed in the blank control area) | Post-emergence weed control effect, Amaranthus retroflexus [18]: 1; Post-emergence weed control effect, Green bristlegrass [19]: 2 (equivalent to 0 to 2.5% of the weed in the blank control area); Post-emergence weed control effect, Nutgrass flatsedge [20]: 2 (equivalent to 0 to 2.5% of the weed in the blank control area); Post-emergence weed control effect, Acalypha australis [21]: 1; Post-emergence weed control effect, Chenopodium album [22]: 1; Post-emergence weed control effect, Convolvulus arvensis [23]: 2 (equivalent to 0 to 2.5% of the weed in the blank control area); Post-emergence weed control effect, Goose grass [24]: 2 (equivalent to 0 to 2.5% of the weed in the blank control area); Post-emergence weed control effect, Digitaria sanguinalis [25]: 2 (equivalent to 0 to 2.5% of the weed in the blank control area); Herbicidal Activity Humulus scandens [26]: 2 (equivalent to 0 to 2.5% of the weed in the blank control area) |
| Cc1cccc(C(=O)NCc2cc(F)cc(Cl)c2)c1 [Compound B07] | 2 (equivalent to 0 to 2.5% of the weed in the blank control area) | 1 | 1 | 1 | 1 | 1 | 2 (equivalent to 0 to 2.5% of the weed in the blank control area) | 2 (equivalent to 0 to 2.5% of the weed in the blank control area) | 1 | 1 | 1 | 1 | 1 | 1 | 1 | 1 | 1 | 1 | 1 | 2 (equivalent to 0 to 2.5% of the weed in the blank control area) | Post-emergence weed control effect, Amaranthus retroflexus [18]: 1; Post-emergence weed control effect, Green bristlegrass [19]: 2 (equivalent to 0 to 2.5% of the weed in the blank control area); Post-emergence weed control effect, Nutgrass flatsedge [20]: 2 (equivalent to 0 to 2.5% of the weed in the blank control area); Post-emergence weed control effect, Acalypha australis [21]: 2 (equivalent to 0 to 2.5% of the weed in the blank control area); Post-emergence weed control effect, Chenopodium album [22]: 1; Post-emergence weed control effect, Convolvulus arvensis [23]: 1; Post-emergence weed control effect, Goose grass [24]: 2 (equivalent to 0 to 2.5% of the weed in the blank control area); Post-emergence weed control effect, Digitaria sanguinalis [25]: 2 (equivalent to 0 to 2.5% of the weed in the blank control area); Herbicidal Activity Humulus scandens [26]: 3 (equivalent to 2.6 to 5% of the weed in the blank control area) |
